Test results as given in PubChem BioAssay (NCI).
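GI50: concentration for 50% inhibition of growth. TGI denotes the concentration required for complete inhibition of growth.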

What was measured:
Assay in all cases: NCI tumour cell line growth inhibition, 384-well format
[1] = system: COLO 205 colon
[2] = system: UACC-62 melanoma
[3] = system: SF-539 CNS
[4] = system: A498 renal
[5] = system: OVCAR-3 ovarian
[6] = system: RPMI-8226 leukemia
[7] = system: LOX IMVI melanoma
[8] = system: EKVX NSCLC
[9] = system: OVCAR-4 ovarian
[10] = system: SK-MEL-28 melanoma
[11] = system: NCI-H23 lung
[12] = system: A549 NSCLC
[13] = system: ACHN renal
[14] = system: SN12C renal
[15] = system: SF-268 CNS
[16] = system: MDA-MB-468 breast
[17] = system: SNB-19 CNS
[18] = system: IGROV1 ovarian
[19] = system: SR leukemia
[20] = system: HT29 colon
[21] = system: HOP-92 NSCLC
[22] = system: HCT-116 colon
[23] = system: CAKI-1 renal
[24] = system: U251 glioblastoma
[25] = system: TK-10 renal
[26] = system: SK-MEL-5 melanoma
[27] = system: DU-145 prostate
[28] = system: HS 578T breast
[29] = system: UACC-257 melanoma
[30] = system: KM12 colon
[31] = system: OVCAR-8 ovarian
[32] = system: NCI/ADR-RES ovarian
[33] = system: HOP-62 NSCLC
[34] = system: 786-0 renal
[35] = system: BT-549 breast
[36] = system: M14 melanoma
[37] = system: HCC-2998 colon
[38] = system: NCI-H226 lung
[39] = system: K-562 leukemia
[40] = system: MCF7 breast
[41] = system: RXF 393 renal
[42] = system: SK-OV-3 ovarian
[43] = system: OVCAR-5 ovarian
[44] = system: SK-MEL-2 melanoma
[45] = system: UO-31 renal
[46] = system: NCI-H460 NSCLC
[47] = system: CCRF-CEM leukemia

Cc1cc([C@H](C)Nc2nccc(N3C(=O)OC[C@@H]3[C@H](C)F)n2)ncc1-c1ccnc(C(F)(F)F)c1
GI50 [1]: 64.1 µM
TGI [1]: > 100 µM
GI50 [2]: 52.2 µM
TGI [2]: > 100 µM
GI50 [3]: 96.3 µM
TGI [3]: > 100 µM
GI50 [4]: 30.4 µM
TGI [4]: > 100 µM
GI50 [5]: 22.2 µM
TGI [5]: 72.3 µM
GI50 [6]: 7.2 µM
TGI [6]: 21.2 µM
GI50 [7]: 53.1 µM
TGI [7]: > 100 µM
GI50 [8]: 11.2 µM
TGI [8]: 98.2 µM
GI50 [9]: 29.6 µM
TGI [9]: > 100 µM
GI50 [10]: > 100 µM
TGI [10]: > 100 µM
GI50 [11]: 8.03 µM
TGI [11]: > 100 µM
GI50 [12]: 41.1 µM
TGI [12]: > 100 µM
GI50 [13]: 40.2 µM
TGI [13]: > 100 µM
GI50 [14]: 45.5 µM
TGI [14]: > 100 µM
GI50 [15]: 68.6 µM
TGI [15]: > 100 µM
GI50 [16]: 4.43 µM
TGI [16]: 24.5 µM
GI50 [17]: 42.7 µM
TGI [17]: > 100 µM
GI50 [18]: 28.3 µM
TGI [18]: > 100 µM
GI50 [19]: 11.1 µM
TGI [19]: 25.4 µM
GI50 [20]: 31.7 µM
TGI [20]: > 100 µM
GI50 [21]: 29.2 µM
TGI [21]: > 100 µM
GI50 [22]: 21 µM
TGI [22]: 96.7 µM
GI50 [23]: 34.4 µM
TGI [23]: > 100 µM
GI50 [24]: 36.4 µM
TGI [24]: > 100 µM
GI50 [25]: 27.8 µM
TGI [25]: > 100 µM
GI50 [26]: 10.2 µM
TGI [26]: 25.4 µM
GI50 [27]: 41.7 µM
TGI [27]: > 100 µM
GI50 [28]: 16.1 µM
TGI [28]: > 100 µM
GI50 [29]: 16.6 µM
TGI [29]: 51.1 µM
GI50 [30]: 40.1 µM
TGI [30]: > 100 µM
GI50 [31]: 31.6 µM
TGI [31]: > 100 µM
GI50 [32]: 16.2 µM
TGI [32]: 94.4 µM
GI50 [33]: 54.5 µM
TGI [33]: > 100 µM
GI50 [34]: 31.3 µM
TGI [34]: > 100 µM
GI50 [35]: 28 µM
TGI [35]: > 100 µM
GI50 [36]: 86.2 µM
TGI [36]: > 100 µM
GI50 [37]: 24.6 µM
TGI [37]: > 100 µM
GI50 [38]: 25.3 µM
TGI [38]: > 100 µM
GI50 [39]: 8.88 µM
TGI [39]: > 100 µM
GI50 [40]: 25.8 µM
TGI [40]: > 100 µM
GI50 [41]: 15.7 µM
TGI [41]: 76.5 µM
GI50 [42]: 41.7 µM
TGI [42]: > 100 µM
GI50 [43]: 53.9 µM
TGI [43]: > 100 µM
GI50 [44]: 82.9 µM
TGI [44]: > 100 µM
GI50 [45]: 18.8 µM
TGI [45]: > 100 µM
GI50 [46]: 37.1 µM
TGI [46]: > 100 µM
GI50 [47]: 7.56 µM
TGI [47]: 31.5 µM
